Test results: ChEMBL document CHEMBL4507272 (2021)

Assays:
[1] = target: Serine/threonine-protein kinase 32C (Homo sapiens) (UniProt Q86UX6); settings: Compound concentration 1000.0 nM
[2] = target: Cyclin-dependent kinase-like 5 (Homo sapiens) (UniProt O76039); settings: Compound concentration 1000.0 nM
[3] = target: Calcium/calmodulin-dependent protein kinase type 1D (Homo sapiens) (UniProt Q8IU85); settings: Compound concentration 1000.0 nM
[4] = target: Serine/threonine-protein kinase NLK (Homo sapiens) (UniProt Q9UBE8); settings: Compound concentration 1000.0 nM
[5] = target: Ribosomal protein S6 kinase alpha-5 (Homo sapiens) (UniProt O75582); settings: Compound concentration 1000.0 nM
[6] = test system: Epidermal growth factor receptor (Homo sapiens), P00533 [G719C]; settings: Compound concentration 1000.0 nM
[7] = target: Myosin-IIIb (Homo sapiens) (UniProt Q8WXR4); settings: Compound concentration 1000.0 nM
[8] = test system: eIF-2-alpha kinase GCN2 (Homo sapiens), Q9P2K8 [S808G]; settings: Compound concentration 1000.0 nM
[9] = target: Tyrosine-protein kinase TXK (Homo sapiens) (UniProt P42681); settings: Compound concentration 1000.0 nM
[10] = test system: Mast/stem cell growth factor receptor Kit (Homo sapiens), P10721 [L576P]; settings: Compound concentration 1000.0 nM
[11] = test system: Mast/stem cell growth factor receptor Kit (Homo sapiens), P10721 [V559D]; settings: Compound concentration 1000.0 nM
[12] = target: Homeodomain-interacting protein kinase 1 (Homo sapiens) (UniProt Q86Z02); settings: Compound concentration 1000.0 nM
[13] = target: Serine/threonine-protein kinase TAO3 (Homo sapiens) (UniProt Q9H2K8); settings: Compound concentration 1000.0 nM
[14] = target: Serine/threonine-protein kinase Chk1 (Homo sapiens) (UniProt O14757); settings: Compound concentration 1000.0 nM
[15] = target: Serine/threonine-protein kinase PLK2 (Homo sapiens) (UniProt Q9NYY3); settings: Compound concentration 1000.0 nM
[16] = target: TGF-beta receptor type-2 (Homo sapiens) (UniProt P37173); settings: Compound concentration 1000.0 nM
[17] = target: Tyrosine-protein kinase CSK (Homo sapiens) (UniProt P41240); settings: Compound concentration 1000.0 nM
[18] = target: Dual specificity protein kinase CLK2 (Homo sapiens) (UniProt P49760); settings: Compound concentration 1000.0 nM
[19] = target: Dual serine/threonine and tyrosine protein kinase (Homo sapiens) (UniProt Q6XUX3); settings: Compound concentration 1000.0 nM
[20] = target: Tyrosine-protein kinase FRK (Homo sapiens) (UniProt P42685); settings: Compound concentration 1000.0 nM
[21] = target: Serine/threonine-protein kinase OSR1 (Homo sapiens) (UniProt O95747); settings: Compound concentration 1000.0 nM
[22] = target: STE20-like serine/threonine-protein kinase (Homo sapiens) (UniProt Q9H2G2); settings: Compound concentration 1000.0 nM
[23] = target: Protein-tyrosine kinase 2-beta (Homo sapiens) (UniProt Q14289); settings: Compound concentration 1000.0 nM
[24] = target: Receptor tyrosine-protein kinase erbB-4 (Homo sapiens) (UniProt Q15303); settings: Compound concentration 1000.0 nM
[25] = target: Myosin light chain kinase, smooth muscle (Homo sapiens) (UniProt Q15746); settings: Compound concentration 1000.0 nM
[26] = target: Serine/threonine-protein kinase Nek2 (Homo sapiens) (UniProt P51955); settings: Compound concentration 1000.0 nM
[27] = target: Serine/threonine-protein kinase mTOR (Homo sapiens) (UniProt P42345); settings: Compound concentration 1000.0 nM
[28] = target: Hepatocyte growth factor receptor (Homo sapiens) (UniProt P08581); settings: Compound concentration 1000.0 nM
[29] = target: LIM domain kinase 2 (Homo sapiens) (UniProt P53671); settings: Compound concentration 1000.0 nM
[30] = target: D(1A) dopamine receptor (Homo sapiens) (UniProt P21728); settings: Compound concentration 10.0 uM
[31] = target: Cyclin-dependent kinase 2 homolog (Plasmodium falciparum (isolate 3D7)) (UniProt P61075); settings: Compound concentration 1000.0 nM
[32] = target: Cyclin-dependent kinase 16 (Homo sapiens) (UniProt Q00536); settings: Compound concentration 1000.0 nM
[33] = target: Ribosomal protein S6 kinase alpha-6 (Homo sapiens) (UniProt Q9UK32); settings: Compound concentration 1000.0 nM
[34] = target: SRSF protein kinase 1 (Homo sapiens) (UniProt Q96SB4); settings: Compound concentration 1000.0 nM
[35] = target: Tyrosine-protein kinase ABL1 (Homo sapiens) (UniProt P00519); settings: Compound concentration 1000.0 nM
[36] = target: Serine/threonine-protein kinase pim-3 (Homo sapiens) (UniProt Q86V86); settings: Compound concentration 1000.0 nM
[37] = test system: Tyrosine-protein kinase ABL1 (Homo sapiens), P00519 [Q252H]; settings: Compound concentration 1000.0 nM
[38] = target: Protein-tyrosine kinase 6 (Homo sapiens) (UniProt Q13882); settings: Compound concentration 1000.0 nM
[39] = test system: Phosphatidylinositol 4,5-bisphosphate 3-kinase catalytic subunit alpha isoform (Homo sapiens), P42336 [C420R]; settings: Compound concentration 1000.0 nM
[40] = target: Insulin receptor (Homo sapiens) (UniProt P06213); settings: Compound concentration 1000.0 nM
[41] = target: 1-phosphatidylinositol 3-phosphate 5-kinase (Homo sapiens) (UniProt Q9Y2I7); settings: Compound concentration 1000.0 nM
[42] = target: Macrophage colony-stimulating factor 1 receptor (Homo sapiens) (UniProt P07333); settings: Compound concentration 1000.0 nM
[43] = target: Aurora kinase C (Homo sapiens) (UniProt Q9UQB9); settings: Compound concentration 1000.0 nM
[44] = test system: Fibroblast growth factor receptor 3 (Homo sapiens), P22607 [G697C]; settings: Compound concentration 1000.0 nM
[45] = target: Serine/threonine-protein kinase WNK4 (Homo sapiens) (UniProt Q96J92); settings: Compound concentration 1000.0 nM
[46] = target: Serine/threonine-protein kinase Sgk1 (Homo sapiens) (UniProt O00141); settings: Compound concentration 1000.0 nM
Sequence of Serine/threonine-protein kinase Sgk1 (Homo sapiens) (O00141 whole entry): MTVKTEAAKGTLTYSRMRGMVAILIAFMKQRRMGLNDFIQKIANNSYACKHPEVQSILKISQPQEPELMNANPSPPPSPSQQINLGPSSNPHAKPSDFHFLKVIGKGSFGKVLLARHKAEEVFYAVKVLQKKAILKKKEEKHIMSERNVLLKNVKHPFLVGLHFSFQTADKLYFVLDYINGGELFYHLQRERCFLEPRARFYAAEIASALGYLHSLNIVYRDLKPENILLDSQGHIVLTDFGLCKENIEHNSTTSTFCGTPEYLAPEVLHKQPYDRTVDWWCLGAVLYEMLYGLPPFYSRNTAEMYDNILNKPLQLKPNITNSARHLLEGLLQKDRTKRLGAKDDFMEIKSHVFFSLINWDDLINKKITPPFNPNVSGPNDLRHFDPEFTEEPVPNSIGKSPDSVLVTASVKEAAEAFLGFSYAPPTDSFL

Sequence of Cyclin-dependent kinase 2 homolog (Plasmodium falciparum (isolate 3D7)) (P61075 whole entry): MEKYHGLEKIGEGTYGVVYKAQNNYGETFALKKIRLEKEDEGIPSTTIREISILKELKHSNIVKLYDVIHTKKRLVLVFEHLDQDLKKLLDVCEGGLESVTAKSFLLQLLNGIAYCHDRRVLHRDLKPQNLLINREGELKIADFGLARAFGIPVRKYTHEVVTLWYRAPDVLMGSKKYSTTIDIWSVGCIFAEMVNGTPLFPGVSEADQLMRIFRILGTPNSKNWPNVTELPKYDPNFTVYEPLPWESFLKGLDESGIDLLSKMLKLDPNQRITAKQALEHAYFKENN
Sequence of Protein-tyrosine kinase 2-beta (Homo sapiens) (Q14289 whole entry, looked up): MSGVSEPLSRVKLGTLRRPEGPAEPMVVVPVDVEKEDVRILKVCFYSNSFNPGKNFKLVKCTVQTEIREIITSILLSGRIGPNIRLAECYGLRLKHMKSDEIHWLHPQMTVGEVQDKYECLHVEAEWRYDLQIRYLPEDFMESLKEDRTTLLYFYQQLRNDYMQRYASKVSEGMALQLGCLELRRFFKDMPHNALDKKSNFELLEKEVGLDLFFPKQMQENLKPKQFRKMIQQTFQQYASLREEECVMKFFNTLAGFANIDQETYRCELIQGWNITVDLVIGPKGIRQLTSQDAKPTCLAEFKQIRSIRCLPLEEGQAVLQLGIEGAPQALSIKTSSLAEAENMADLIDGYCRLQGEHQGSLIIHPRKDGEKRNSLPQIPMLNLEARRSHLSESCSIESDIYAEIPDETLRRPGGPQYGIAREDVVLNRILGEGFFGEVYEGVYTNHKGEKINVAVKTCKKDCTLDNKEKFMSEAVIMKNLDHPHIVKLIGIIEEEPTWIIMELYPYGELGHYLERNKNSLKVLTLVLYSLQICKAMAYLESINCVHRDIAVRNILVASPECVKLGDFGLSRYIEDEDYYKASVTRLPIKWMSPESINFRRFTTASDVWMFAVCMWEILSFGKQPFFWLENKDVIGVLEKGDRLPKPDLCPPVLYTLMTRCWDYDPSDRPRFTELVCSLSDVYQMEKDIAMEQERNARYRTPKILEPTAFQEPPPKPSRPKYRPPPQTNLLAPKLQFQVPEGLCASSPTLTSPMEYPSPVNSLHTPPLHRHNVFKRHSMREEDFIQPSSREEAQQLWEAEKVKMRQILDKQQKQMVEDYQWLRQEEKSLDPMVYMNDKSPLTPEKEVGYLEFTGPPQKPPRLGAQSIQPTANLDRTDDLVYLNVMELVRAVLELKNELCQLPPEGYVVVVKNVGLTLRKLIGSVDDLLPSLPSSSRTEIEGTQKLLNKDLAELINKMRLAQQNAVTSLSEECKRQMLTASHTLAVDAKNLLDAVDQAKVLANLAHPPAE
Sequence of Hepatocyte growth factor receptor (Homo sapiens) (P08581 whole entry, the tested form may be a part): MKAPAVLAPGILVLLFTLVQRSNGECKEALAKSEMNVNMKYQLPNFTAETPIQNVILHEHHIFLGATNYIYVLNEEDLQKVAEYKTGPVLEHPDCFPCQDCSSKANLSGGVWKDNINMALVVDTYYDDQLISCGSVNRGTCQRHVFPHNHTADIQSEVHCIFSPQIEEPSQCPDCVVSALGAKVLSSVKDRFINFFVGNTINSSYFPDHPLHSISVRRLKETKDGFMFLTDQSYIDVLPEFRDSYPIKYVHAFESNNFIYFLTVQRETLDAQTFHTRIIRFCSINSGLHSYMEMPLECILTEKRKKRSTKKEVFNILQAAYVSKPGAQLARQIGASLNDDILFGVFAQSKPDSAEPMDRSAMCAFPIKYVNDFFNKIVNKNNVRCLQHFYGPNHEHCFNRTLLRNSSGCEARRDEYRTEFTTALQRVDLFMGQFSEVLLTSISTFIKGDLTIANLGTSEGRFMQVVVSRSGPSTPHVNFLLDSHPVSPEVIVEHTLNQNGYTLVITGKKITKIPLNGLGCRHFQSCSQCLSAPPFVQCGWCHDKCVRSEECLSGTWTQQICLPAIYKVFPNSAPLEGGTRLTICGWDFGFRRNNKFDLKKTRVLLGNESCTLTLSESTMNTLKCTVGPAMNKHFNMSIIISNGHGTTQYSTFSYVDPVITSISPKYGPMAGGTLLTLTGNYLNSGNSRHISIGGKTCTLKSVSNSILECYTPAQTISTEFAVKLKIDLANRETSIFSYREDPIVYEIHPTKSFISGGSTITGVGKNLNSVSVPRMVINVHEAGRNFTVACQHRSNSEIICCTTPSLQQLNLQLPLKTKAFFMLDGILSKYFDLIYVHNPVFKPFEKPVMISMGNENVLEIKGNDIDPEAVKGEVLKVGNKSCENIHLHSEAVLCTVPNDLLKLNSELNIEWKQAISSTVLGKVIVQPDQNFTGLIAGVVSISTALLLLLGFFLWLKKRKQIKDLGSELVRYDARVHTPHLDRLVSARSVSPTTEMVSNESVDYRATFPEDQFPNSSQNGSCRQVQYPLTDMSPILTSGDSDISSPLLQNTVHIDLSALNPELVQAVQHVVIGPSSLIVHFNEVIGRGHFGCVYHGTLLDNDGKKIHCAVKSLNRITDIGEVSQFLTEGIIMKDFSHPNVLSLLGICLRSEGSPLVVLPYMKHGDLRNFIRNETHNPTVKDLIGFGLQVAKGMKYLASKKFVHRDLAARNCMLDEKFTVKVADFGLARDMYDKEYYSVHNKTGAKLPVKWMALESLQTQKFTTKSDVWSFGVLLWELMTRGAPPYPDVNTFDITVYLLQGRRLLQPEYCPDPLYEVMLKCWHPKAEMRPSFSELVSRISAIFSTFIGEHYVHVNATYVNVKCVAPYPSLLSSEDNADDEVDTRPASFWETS
Sequence of Cyclin-dependent kinase-like 5 (Homo sapiens) (O76039 whole entry): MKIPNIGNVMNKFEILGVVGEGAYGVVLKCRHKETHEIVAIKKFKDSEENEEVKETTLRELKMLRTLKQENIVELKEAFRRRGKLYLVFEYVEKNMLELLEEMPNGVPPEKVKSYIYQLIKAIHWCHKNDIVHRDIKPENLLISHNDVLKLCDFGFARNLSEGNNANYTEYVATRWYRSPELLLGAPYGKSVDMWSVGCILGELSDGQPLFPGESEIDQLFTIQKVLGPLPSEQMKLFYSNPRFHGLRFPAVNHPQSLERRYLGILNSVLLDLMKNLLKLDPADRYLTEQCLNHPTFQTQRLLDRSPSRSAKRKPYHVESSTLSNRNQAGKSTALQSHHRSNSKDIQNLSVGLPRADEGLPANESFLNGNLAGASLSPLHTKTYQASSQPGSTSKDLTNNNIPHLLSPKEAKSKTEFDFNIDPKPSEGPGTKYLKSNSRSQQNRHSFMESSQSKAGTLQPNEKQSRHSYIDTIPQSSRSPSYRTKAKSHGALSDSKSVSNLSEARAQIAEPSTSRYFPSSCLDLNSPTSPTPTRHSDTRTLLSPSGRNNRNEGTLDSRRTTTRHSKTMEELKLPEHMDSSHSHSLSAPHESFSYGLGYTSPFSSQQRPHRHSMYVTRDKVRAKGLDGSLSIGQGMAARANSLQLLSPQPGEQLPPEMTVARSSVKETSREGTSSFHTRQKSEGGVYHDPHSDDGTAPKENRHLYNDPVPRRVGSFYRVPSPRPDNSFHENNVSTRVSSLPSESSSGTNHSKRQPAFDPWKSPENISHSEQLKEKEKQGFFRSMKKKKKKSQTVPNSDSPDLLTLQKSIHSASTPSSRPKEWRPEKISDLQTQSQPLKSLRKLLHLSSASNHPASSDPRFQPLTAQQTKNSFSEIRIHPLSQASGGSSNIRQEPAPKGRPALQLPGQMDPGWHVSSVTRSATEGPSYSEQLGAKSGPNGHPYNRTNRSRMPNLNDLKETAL
Sequence of SRSF protein kinase 1 (Homo sapiens) (Q96SB4 whole entry): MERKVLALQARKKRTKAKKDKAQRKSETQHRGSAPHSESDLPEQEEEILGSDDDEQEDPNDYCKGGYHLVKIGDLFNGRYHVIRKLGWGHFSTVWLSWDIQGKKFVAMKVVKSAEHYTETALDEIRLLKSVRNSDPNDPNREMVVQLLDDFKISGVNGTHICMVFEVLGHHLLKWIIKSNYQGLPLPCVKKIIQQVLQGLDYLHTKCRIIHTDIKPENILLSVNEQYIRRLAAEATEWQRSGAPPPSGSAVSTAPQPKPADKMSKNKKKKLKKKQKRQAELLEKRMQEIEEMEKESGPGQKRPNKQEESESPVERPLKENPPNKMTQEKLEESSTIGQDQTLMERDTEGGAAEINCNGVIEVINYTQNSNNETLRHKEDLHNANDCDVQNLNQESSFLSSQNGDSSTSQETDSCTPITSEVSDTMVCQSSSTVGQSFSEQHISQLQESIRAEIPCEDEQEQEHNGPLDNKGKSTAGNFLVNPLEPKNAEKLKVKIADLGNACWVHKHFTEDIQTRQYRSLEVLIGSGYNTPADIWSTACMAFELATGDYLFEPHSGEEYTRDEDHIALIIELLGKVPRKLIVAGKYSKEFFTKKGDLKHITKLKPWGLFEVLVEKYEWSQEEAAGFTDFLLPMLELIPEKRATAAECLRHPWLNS
Sequence of Aurora kinase C (Homo sapiens) (Q9UQB9 whole entry): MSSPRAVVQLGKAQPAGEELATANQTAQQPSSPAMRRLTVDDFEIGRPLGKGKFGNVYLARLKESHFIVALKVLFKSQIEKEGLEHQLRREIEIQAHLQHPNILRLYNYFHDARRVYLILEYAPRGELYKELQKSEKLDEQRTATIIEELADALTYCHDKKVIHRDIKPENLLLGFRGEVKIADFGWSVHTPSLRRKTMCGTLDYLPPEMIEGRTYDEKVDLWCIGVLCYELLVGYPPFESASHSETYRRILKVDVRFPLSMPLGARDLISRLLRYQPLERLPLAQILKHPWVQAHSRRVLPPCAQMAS

CC(=O)C1=C(C)N(c2cccc(C(F)(F)F)c2)C(=O)N[C@@H]1c1ccc(C#N)nc1 [BAY-678]
inactive: residual activity [1] 94.1% | residual activity [2] 100% | residual activity [3] 79.4% | residual activity [4] 93% | residual activity [5] 89.2% | residual activity [6] 100% | residual activity [7] 78.3% | residual activity [8] 56.9% | residual activity [9] 100% | residual activity [10] 100% | residual activity [11] 100% | residual activity [12] 72.6% | residual activity [13] 73% | residual activity [14] 73.2% | residual activity [15] 97.8% | residual activity [16] 67.8% | residual activity [17] 90% | residual activity [18] 100% | residual activity [19] 76.9% | residual activity [20] 100% | residual activity [21] 100% | residual activity [22] 98.4% | residual activity [23] 100% | residual activity [24] 90.8% | residual activity [25] 83.8% | residual activity [26] 100% | residual activity [27] 92.5% | residual activity [28] 98.1% | residual activity [29] 91.7% | inhibition [30] -8.4% | residual activity [31] 100% | residual activity [32] 100% | residual activity [33] 87.7% | residual activity [34] 67.5% | residual activity [35] 83.3% | residual activity [36] 100% | residual activity [37] 100% | residual activity [38] 100% | residual activity [39] 100% | residual activity [40] 89.3% | residual activity [41] 90% | residual activity [42] 99.4% | residual activity [43] 100% | residual activity [44] 100% | residual activity [45] 100% | residual activity [46] 100%
